Experimental data from US20220153746A1, “NITROGEN OXIDE-DONATING PDE-5 AND/OR PDE-6 INHIBITOR COMPOUNDS, AND USES THEREOF” (ILDONG PHARMACEUTICAL CO., LTD., priority 2020, published 2022).

Assays:
[1] = Plasma protein binding assay (equilibrium dialysis); type: in vitro ADME; conditions: human plasma, dialysis 4 hours at 37° C.
Protocol: (§1) The dialysis device used in this example is a 96-well equilibrium dialysis plate (Cat #1006, HT Dialysis LLC, Gales Gerry, CT), and HTD 96 a/b dialysis membrane strips (Cat #1101, MWCO 12-14 kDa, HT Dialysis LLC). The dialysis device was assembled following the manufacturer's instructions.
(§2) The dialysis membrane strips were soaked in ultra-pure water at room temperature for approximately 1 hour. Each membrane strip containing 2 membranes was separated and soaked in 20:80 ethanol/water (v/v) for approximately 20 minutes, after which they were ready for used or were stored in the solution at 2-8° C. for up to a month. Prior to experiment, the membrane was rinsed and soaked for 20 minutes in ultra-pure water.
(§3) On the day of the experiment, the plasma was thawed by running under col tap water and centrifuged at 3220 rpm for 5 minutes to remove any clos. The pH value of the resulting plasma was checked. Only plasma with pH value with 7.0-8.0 could be used.
(§4) Both test and control compounds were dissolved in DMSO to achieve 10 mM stock solutions. Working solutions (400 μM) if test and control compounds were prepared by diluting 10μ of stock solutions with 240 μL of DMSO. Loading matrix solutions (2 μM) of both test and control compounds were prepared by diluting 5 μL of working solutions with 995 μL of blank matrix.
(§5) To prepare the loading matrix containing the test compound or control compounds, aliquots of either test compound working solutions or control compound working solution were spiked into blank matrix to achieve final test concentrations. The concentration of organic solvent in the final solutions were no more than 1% (normally 0.5%). The samples were mixture thoroughly before being used.
(§6) To prepare the time zero (T0) samples to be used for recovery determinations. 50 μL aliquots of loading matrix solution were transferred in triplicate to the sample collection plate. The samples were immediately matched with opposite blank buffer to obtain a final volume of 100 μL of 1:1 matrix/dialysis buffer (v/v) in each well. 500 μL of stop solution were added to these T0 samples. They were then stored at 2-8° C. pending further processes along with other post-dialysis samples.
(§7) To load the dialysis device, an aliquot of 150 μL of the loading matrix was transferred to the donor side of each dialysis well in triplicate, and 150 μL of the dialysis buffer was loaded to the received side of the well. The dialysis was placed in humidified incubator at 37° C. with 5% CO2 on a shaking platform that rated slowly (about 100 rpm) for 4 hours.
(§8) At the end of the dialysis, aliquots of 50 μL of samples were taken from both the buffer side and the matrix side of the dialysis deice. These samples were transferred into new 96-well plates (the sample collection plates). Each sample was mixed with an equal volume of opposite blank matrix (buffer or matrix) to reach a final volume of 100 μL of 1:1 matrix/dialysis buffer (v/v) in each well. All samples were further processed by adding 500 μL of stop solution containing internal standards. The mixture was vortexed and centrifuged at 4000 rpm for about 20 minutes. An aliquot of 100 μL of supernatant of all the samples were then removed for LC-MS/MS analysis.
(§9) The single blank samples were prepared by transferring 50 μL of blank matrix to a 96 well plate and adding 50 μL of blank PBS buffer to each well. The blank plasma must match the species of plasma used in the plasma side of the well. Then the matrix-matched samples were further processed by adding 500 μL of stop solution containing internal standards, following the same sample processing method as the dialysis samples.

human plasma proteins = experiment: as above; type: in vitro ADME; conditions: 2 μM, dialysis 4 hours at 37° C.
Protocol: as §1, §2, §3, §4, §5, §6, §7, §8, §9

| SMILES | fraction unbound at 4 h, 2 µM [1] | % Bound (human plasma proteins) [%] |
| --- | --- | --- |
| CCCc1nn(C)c2c(=O)[nH]c(-c3cc(S(=O)(=O)N4CC(CCCO)C4)ccc3OCC)nc12 [Compound 4, 5-(2-ethoxy-5-((3-(3-hydroxypropyl)azetidin-1-yl)sulfonyl)phenyl)-1-methyl-3-propyl-1,6-dihydro-7H-pyrazolo[4,3-d]pyrimidin-7-one] | 0.0399 | 96.01 |
| CCCc1nn(C)c2c(=O)[nH]c(-c3cc(S(=O)(=O)N4CC(CCCO[N+](=O)[O-])C4)ccc3OCC)nc12 [Compound 18, 3-(1-((4-ethoxy-3-(1-methyl-7-oxo-3-propyl-6,7-dihydro-1H-pyrazolo[4,3-d]pyrimidin-5-yl)phenyl)sulfonyl)azetidin-3-yl)propyl nitrate] | 0.0048 | 99.52 |
